The record followed here is US20170008928A1, “NOVEL PEPTIDES AND PEPTIDE DERIVATIVES AND USES THEREOF” (Novo Nordisk A/S, priority 2015, published 2017).

Test [1] deals with T1, human cholecystokinin-1 receptor (human, UniProt P32238 1-428).
T1 sequence (looked up): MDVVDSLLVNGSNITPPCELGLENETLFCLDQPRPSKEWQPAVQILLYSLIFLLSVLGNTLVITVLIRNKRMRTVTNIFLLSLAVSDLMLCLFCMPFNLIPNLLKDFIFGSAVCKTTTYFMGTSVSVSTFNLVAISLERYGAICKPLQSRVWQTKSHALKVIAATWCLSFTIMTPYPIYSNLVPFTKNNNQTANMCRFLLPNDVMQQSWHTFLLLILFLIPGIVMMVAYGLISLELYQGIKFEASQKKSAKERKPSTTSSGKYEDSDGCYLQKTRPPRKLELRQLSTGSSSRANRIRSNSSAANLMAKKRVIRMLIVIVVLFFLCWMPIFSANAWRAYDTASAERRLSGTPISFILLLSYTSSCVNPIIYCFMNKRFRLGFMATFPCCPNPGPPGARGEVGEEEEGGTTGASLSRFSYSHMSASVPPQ
Nature of the test: cell-based or functional assay.

In test [2] the target is T2, human cholecystokinin-2 receptor (human, UniProt P32239 1-447).
T2 sequence (looked up): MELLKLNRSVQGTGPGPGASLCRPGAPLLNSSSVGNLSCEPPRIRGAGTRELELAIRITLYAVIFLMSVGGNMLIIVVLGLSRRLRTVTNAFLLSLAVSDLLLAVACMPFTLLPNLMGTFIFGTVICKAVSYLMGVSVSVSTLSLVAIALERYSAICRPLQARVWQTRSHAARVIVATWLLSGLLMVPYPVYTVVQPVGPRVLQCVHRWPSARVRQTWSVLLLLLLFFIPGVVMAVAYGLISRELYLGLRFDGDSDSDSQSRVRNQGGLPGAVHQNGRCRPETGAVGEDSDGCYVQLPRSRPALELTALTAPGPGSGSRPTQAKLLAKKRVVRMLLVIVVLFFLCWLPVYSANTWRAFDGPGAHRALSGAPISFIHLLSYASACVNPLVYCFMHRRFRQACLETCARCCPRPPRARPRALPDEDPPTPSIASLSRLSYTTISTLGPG
In words: cell-based or functional assay.

The target in test [3] is T3, human cholecystokinin-1 receptor (CCK-1R) (Homo sapiens, UniProt P32238).
T3 construct: host or cells: 1321-N1 cells
T3 sequence (P32238 1-428): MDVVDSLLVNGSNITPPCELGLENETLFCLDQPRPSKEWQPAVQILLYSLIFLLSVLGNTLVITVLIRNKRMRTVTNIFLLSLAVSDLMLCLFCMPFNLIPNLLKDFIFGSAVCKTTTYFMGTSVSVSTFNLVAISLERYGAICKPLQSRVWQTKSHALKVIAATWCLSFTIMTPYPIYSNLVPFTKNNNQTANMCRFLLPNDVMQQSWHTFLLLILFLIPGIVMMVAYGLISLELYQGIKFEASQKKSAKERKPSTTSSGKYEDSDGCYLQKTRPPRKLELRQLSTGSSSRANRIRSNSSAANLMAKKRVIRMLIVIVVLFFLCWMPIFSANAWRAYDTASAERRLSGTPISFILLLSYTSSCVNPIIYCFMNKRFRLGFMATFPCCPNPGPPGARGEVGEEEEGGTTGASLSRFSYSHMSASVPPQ
In words: In vitro receptor binding to CCK-1R, SPA displacement of [125I]-CCK-8s from plasma membranes. The conditions noted are these: for CCK-1R binding selectivity (IC50 (CCK-2R)/IC50 (CCK-1R)): ratio of binding IC50 values, >1 = preference for CCK-1R. Background: In a radioligand displacement assay an active substance lowers the binding of a labelled ligand.

In test [4] the target is T4, human cholecystokinin-2 receptor (CCK-2R) (Homo sapiens, UniProt P32239).
T4 construct: host or cells: 1321-N1 cells (plasma membranes prepared by Evotec AG Hamburg)
T4 sequence (P32239 1-447): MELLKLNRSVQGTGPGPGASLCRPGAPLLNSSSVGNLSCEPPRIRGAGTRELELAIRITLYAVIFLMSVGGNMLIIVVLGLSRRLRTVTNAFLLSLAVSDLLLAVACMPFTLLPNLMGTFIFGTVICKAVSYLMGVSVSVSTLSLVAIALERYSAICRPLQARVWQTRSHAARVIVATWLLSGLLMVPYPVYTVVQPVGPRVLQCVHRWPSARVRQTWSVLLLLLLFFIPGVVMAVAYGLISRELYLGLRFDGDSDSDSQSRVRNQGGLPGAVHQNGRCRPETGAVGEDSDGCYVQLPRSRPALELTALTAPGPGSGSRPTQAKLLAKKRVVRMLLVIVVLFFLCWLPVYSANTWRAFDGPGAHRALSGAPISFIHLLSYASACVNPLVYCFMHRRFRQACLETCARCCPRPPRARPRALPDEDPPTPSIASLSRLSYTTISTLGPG
In words: In vitro receptor binding to CCK-2R, SPA displacement of [125I]-CCK-8s from plasma membranes.

In test [5] the target is T3, human cholecystokinin-1 receptor (CCK-1R). In words: In vitro potency on CCK-1R, whole cell functional assay (IP1 accumulation, IP-One HTRF). The settings on record: for CCK-1R selectivity (EC50 (CCK-2R)/EC50 (CCK-1R)): ratio of functional EC50 values, >1 = preference for CCK-1R. It is filed as cell-based.
Test [6] addresses T4, human cholecystokinin-2 receptor (CCK-2R). Nature of the test: In vitro potency on CCK-2R, whole cell functional assay (IP1 accumulation, IP-One HTRF). It counts as cell-based. A general note: TR-FRET usually uses a lanthanide donor and a delayed reading to cut background.
Setting [7] is: displacement of [125I]-CCK-8s, plasma membranes of 1321-N1 cells expressing CCK-1R, read-out: IC50 (CCK-1R).
Setting [8] is: displacement of [125I]-CCK-8s, plasma membranes of 1321-N1 cells expressing CCK-2R, highest dose tested 1×10^7 pM, read-out: IC50 (CCK-2R).
Setting [9] is: 1321-N1 cells stably expressing CCK-1R, IP1 accumulation, average of min. three replicates, read-out: EC50 (CCK-1R).
Setting [10] is: 1321-N1 cells stably expressing CCK-2R, IP1 accumulation, highest dose tested 1×10^6 pM, read-out: EC50 (CCK-2R).

Read-outs that look alike come from different tables or passages of the source. Starred links: 1 amine or outer side, 2 acyl side, 3 side chain; linkers in the order of their positions; H or OH if unused. Non-standard residues stand in square brackets, D forms with d. Residues, ends and D or L forms follow the SMILES beside them. *: point of attachment. Phe(4-CH2SO3H) = N[C@@H](Cc1ccc(CS(=O)(=O)O)cc1)C(=O)O; sY = N[C@@H](Cc1ccc(OS(=O)(=O)O)cc1)C(=O)O; C18 diacid = O=C(O)CCCCCCCCCCCCCCCCC(=O)*; d(βAsp) = O=C(O)[C@@H](CC(=O)[*:2])N[*:1]; γGlu = O=C(O)[C@H](CCC(=O)[*:2])N[*:1]; 1Nal = N[C@@H](Cc1cccc2ccccc12)C(=O)O; NMeF = CN[C@@H](Cc1ccccc1)C(=O)O; dNMeD = CN[C@H](CC(=O)O)C(=O)O; Nle = CCCC[C@H](N)C(=O)O; AEEA = NCCOCCOCC(=O)O

In test [1], “2-[2-[2-[[2-[2-[2-[[(4S)-4-Carboxy-4-(17-carboxyheptadecanoylamino)butanoyl]amino]ethoxy]ethoxy]acetyl]amino]ethoxy]ethoxy]acetyl-Asp-sTyr-Nle-Gly-Trp-Nle-DMeAsp-1Nal-amide (peptide)” gave an EC50 (CCK-1R) of 0.37 nM. The molecule further displayed an EC50 (CCK-2R) in test [2] of 180 nM.

In the case of `CCCC[C@H](NC(=O)[C@H](Cc1ccc(OS(=O)(=O)O)cc1)NC(=O)[C@@H](N)CC(=O)O)C(=O)NCC(=O)N[C@@H](Cc1c[nH]c2ccccc12)C(=O)N[C@@H](CCCC)C(=O)N(C)[C@H](CC(=O)O)C(=O)N[C@@H](Cc1cccc2ccccc12)C(N)=O` [Example 54, Asp-sTyr-Nle-Gly-Trp-Nle-DMeAsp-1Nal-amide] (H-D[sY][Nle]GW[Nle][dNMeD][1Nal]-NH2), the IC50 in test [3] (setting [7]) came to 0.027 nM; in test [4] (setting [8]), 2300 nM. Besides, the “CCK-1R binding selectivity (IC50 (CCK-2R)/IC50 (CCK-1R))” value (shortened to “CCK-1R binding selectivity”) in test [3] worked out at 84000. In addition, the EC50 in test [5] (setting [9]) worked out at 0.14 nM; in test [6] (setting [10]), 290 nM. The “CCK-1R selectivity (EC50 (CCK-2R)/EC50 (CCK-1R))” value in test [5] was found to be 2100.

Consider `CC(C)C[C@H](NC(=O)[C@H](Cc1ccc(OS(=O)(=O)O)cc1)NC(=O)[C@@H](N)CC(=O)O)C(=O)NCC(=O)N[C@@H](Cc1c[nH]c2ccccc12)C(=O)N[C@@H](C)C(=O)N(C)[C@H](CC(=O)O)C(=O)N(C)[C@@H](Cc1ccccc1)C(N)=O` [Example 84, Asp-sTyr-Leu-Gly-Trp-Ala-DMeAsp-MePhe-amide] (H-D[sY]LGWA[dNMeD][NMeF]-NH2), for which the IC50 in test [3] is 0.53 nM; in test [4], above 10000 nM. The EC50 is 0.22 nM in test [5] and above 1000 nM in test [6].

Consider `CCCC[C@H](NC(=O)[C@H](Cc1c[nH]c2ccccc12)NC(=O)CNC(=O)[C@H](Cc1ccccc1)NC(=O)[C@H](Cc1ccc(OS(=O)(=O)O)cc1)NC(=O)[C@@H](N)CC(=O)O)C(=O)N(C)[C@H](CC(=O)O)C(=O)N(C)[C@@H](Cc1ccccc1)C(N)=O` [Example 78, Asp-sTyr-Phe-Gly-Trp-Nle-DMeAsp-MePhe-amide] (H-D[sY]FGW[Nle][dNMeD][NMeF]-NH2), for which the results for the IC50 in test [3] (setting [7]) and in test [4] (setting [8]) were 0.029 nM and 920 nM, respectively. Further, the “CCK-1R binding selectivity” value in test [3] is on record as 32000. For the same molecule, the EC50 in test [5] (setting [9]) is 0.22 nM; in test [6] (setting [10]), above 1000 nM.

For `CC(C)C[C@H](NC(=O)[C@H](Cc1ccc(OS(=O)(=O)O)cc1)NC(=O)[C@H](CCC(=O)O)NC(=O)COCCOCCNC(=O)COCCOCCNC(=O)CC[C@H](NC(=O)CCCCCCCCCCCCCCCCC(=O)O)C(=O)O)C(=O)NCC(=O)N[C@@H](Cc1c[nH]c2ccccc12)C(=O)N[C@@H](CCC(N)=O)C(=O)N(C)[C@H](CC(=O)O)C(=O)N(C)[C@@H](Cc1ccccc1)C(N)=O` [Example 42, 2-[2-[2-[[2-[2-[2-[[(4S)-4-Carboxy-4-(17-carboxyheptadecanoylamino)butanoyl]amino]ethoxy]ethoxy]acetyl]amino]ethoxy]ethoxy]acetyl-Glu-sTyr-Leu-Gly-Trp-Gln-DMeAsp-MePhe-amide], in test [3], the “CCK-1R binding selectivity” value was “very selective”. Moreover, in test [4] (setting [8]), the IC50 is above 10000 nM. The EC50 in test [5] (setting [9]) is 0.22 nM; in test [6] (setting [10]) it was above 1000 nM. For the same molecule, the “CCK-1R selectivity (EC50 (CCK-2R)/EC50 (CCK-1R))” value in test [5] is “very selective”.

B1: 2-[2-[2-[[2-[2-[2-[[(4S)-4-Carboxy-4-(17-carboxyheptadecanoylamino)butanoyl]amino]ethoxy]ethoxy]acetyl]amino]ethoxy]ethoxy]acetyl-DbAsp-Phe(4-sulfomethyl)-Nle-G … (peptide)
peptide: {C18 diacid-γGlu-AEEA-AEEA}-[d(βAsp)][Phe(4-CH2SO3H)][Nle]GW[Nle][dNMeD][NMeF]-NH2
SMILES: CCCC[C@H](NC(=O)[C@H](Cc1ccc(CS(=O)(=O)O)cc1)NC(=O)C[C@@H](NC(=O)COCCOCCNC(=O)COCCOCCNC(=O)CC[C@H](NC(=O)CCCCCCCCCCCCCCCCC(=O)O)C(=O)O)C(=O)O)C(=O)NCC(=O)N[C@@H](Cc1c[nH]c2ccccc12)C(=O)N[C@@H](CCCC)C(=O)N(C)[C@H](CC(=O)O)C(=O)N(C)[C@@H](Cc1ccccc1)C(N)=O
Regarding B1, the “EC50 (CCK-1R)” value in test [1] was determined as 0.43 nM.

One may read the IC50 as the concentration that inhibits the measured activity by half. Broadly, the EC50 is the concentration needed to bring the measured effect to its halfway point.
